{
  "source": "patent US20190070210A1",
  "about": "“COMPOSITION AND METHODS FOR CONDITIONS ASSOCIATED WITH CHRONIC PULMONARY OBSTRUCTIVE DISEASE” (priority 2017, published 2019)",
  "origin": "cited, not measured here",
  "conditions": "solution, 4° C. and neutral pH",
  "data": [
    {"smiles": "NC(=O)c1ccc[n+]([C@@H]2O[C@H](COP(=O)([O-])OP(=O)(O)OC[C@H]3O[C@@H](n4cnc5c(N)ncnc54)[C@H](O)[C@@H]3O)[C@@H](O)[C@H]2O)c1", "note": "[NAD+, nicotinamide adenine dinucleotide]", "values": [
      {"measurement": "time for which solutions are stable", "value": "about a week"}
    ]}
  ]
}
